The subject of one test is A549. As to the kind of experiment: A549 EC50 (cell assay, no method described). Format: cell-based.
Another test concerns the target T1, 15-PGDH/HPGD (Homo sapiens, UniProt P15428).
T1 construct: purchased R&D System 5660-DH
T1 sequence (P15428 1-266): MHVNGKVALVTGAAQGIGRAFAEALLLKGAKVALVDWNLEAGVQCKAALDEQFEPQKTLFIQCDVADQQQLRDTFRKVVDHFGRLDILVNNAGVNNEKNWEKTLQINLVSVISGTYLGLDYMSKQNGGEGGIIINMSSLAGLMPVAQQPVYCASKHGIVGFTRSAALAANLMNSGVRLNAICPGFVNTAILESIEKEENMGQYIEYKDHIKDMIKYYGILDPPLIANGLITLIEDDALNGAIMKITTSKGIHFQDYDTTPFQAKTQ
As to the kind of experiment: hPGDH inhibitor screening biochemical assay. The conditions noted are these: 10 nM enzyme, fluorescence ex/em 340/485 nm. The procedure:
A hydroxyprostaglandin dehydrogenase inhibition screening biochemical assay can be performed to assess the synthesized inhibitors provided herein. Provided herein is an exemplary biochemical assay for hPGDH inhibitor screening.
The in vitro biochemical assay can be performed in white, 384 plates in total 20 μl reaction volume consisting of 10 nM of 15-PGDH/HPGD (R&D System #5660-DH), 15 µM Prostaglandin E2 (Sigma, Cat #P5640-10MG) and 0.25 mM β-Nicotinamide adenine dinucleotide sodium salt (Sigma, Cat #N0632-5G) made in reaction buffer (50 mM Tris-HCl, pH 7.5, 0.01% Tween 20) at 10-point dose response curve for test/tool compounds. Briefly, 5 μl (4×) of compounds solution and 5 μl (final concentration, 10 nM) of enzyme solution is added to white 384 well plates and incubated for 10 mins at 37° C. 5 μl (4×) of Prostaglandin E2 and 5 μl (4×) of β-Nicotinamide adenine dinucleotide sodium salt is added to the wells and incubated for 10 mins at room temperature. Fluorescence is recorded at ex/em=340 nm/485 nm.

Each structure is given as a SMILES string. A value given as a limit tells only on which side of the number the result lay.

Turning to `COCCC[S+]([O-])c1cnc2c(ccn2-c2cccc(-c3nnc[nH]3)c2)c1` (racemic) [Compound 55], in the test on A549 (Homo sapiens, A549, A549), the EC50 was 100 to 1000 nM. The molecule further had an IC50 at 15-PGDH/HPGD of under 100 nM.
On to `CC(C)CC[S+]([O-])c1cnc2c(ccn2-c2cccc(-c3nnc[nH]3)c2)c1` (racemic) [Compound 57], for which, in the test on A549 (Homo sapiens, A549, A549), the EC50 is under 100 nM. The molecule also had an IC50 at 15-PGDH/HPGD of under 100 nM.
On to `CCCC[S+]([O-])c1cnc2c(ccn2-c2cccc(-c3nnc[nH]3)c2)n1` (single isomer, unassigned) [Compound 1A, 2-[butylsulfinyl]-5-[3-(4H-1,2,4-triazol-3-yl)phenyl]pyrrolo[2,3-b]pyrazine], for which the EC50 in the test on A549 (Homo sapiens, A549, A549) was under 100 nM. Moreover, the IC50 against 15-PGDH/HPGD was under 100 nM.
In turn, `CC(C)OC[S+]([O-])c1cnc2c(cnn2-c2cccc(-c3nnc[nH]3)c2)c1` (single isomer, unassigned) [Compound 2A, 1-(3-(4H-1,2,4-triazol-3-yl)phenyl)-5-((isopropoxymethyl)sulfinyl)-1H-pyrazolo[3,4-b]pyridine] returned an IC50 against 15-PGDH/HPGD of 100 to 1000 nM.
`CC(C)OC[S+]([O-])c1cnc2c(cnn2-c2cccc(-c3nnc[nH]3)c2)c1` (single isomer, unassigned) [Compound 2B, 1-(3-(4H-1,2,4-triazol-3-yl)phenyl)-5-((isopropoxymethyl)sulfinyl)-1H-pyrazolo[3,4-b]pyridine] yielded an EC50 with A549 (Homo sapiens, A549, A549) of 100 to 1000 nM. Besides, the IC50 against 15-PGDH/HPGD is under 100 nM.
`[O-][S+](c1cnc2c(cnn2-c2cccc(-c3ccnc(O)c3)c2)c1)C1CCC(F)(F)C1` (single isomer, unassigned) [Compound 3A] registered an EC50 in the test with A549 (Homo sapiens, A549, A549) of at least 1000 nM. In addition, the IC50 on 15-PGDH/HPGD was at least 1000 nM.
The molecule `[O-][S+](c1cnc2c(cnn2-c2cccc(-c3ccnc(O)c3)c2)c1)C1CCC(F)(F)C1` (single isomer, unassigned) [Compound 3B] had an EC50 in the test with A549 (A549) of at least 1000 nM. Also, at 15-PGDH/HPGD, the IC50 was under 100 nM.
In the test with A549 (A549), `[O-][S+](c1cnc2c(cnn2-c2cccc(-c3ccc(O)nc3)c2)c1)C1CCC(F)(F)C1` (single isomer, unassigned) [Compound 5A] had an EC50 of at least 1000 nM. The molecule further gave an IC50 at 15-PGDH/HPGD of 100 to 1000 nM.
On 15-PGDH/HPGD, `[O-][S+](c1cnc2c(cnn2-c2cccc(-c3ccc(O)nc3)c2)c1)C1CCC(F)(F)C1` (single isomer, unassigned) [Compound 5B] yielded an IC50 of at least 1000 nM.
`[O-][S+](c1cnc2c(cnn2-c2cccc(-c3ccc(O)nc3)c2)c1)C1CCC(F)(F)C1` (single isomer, unassigned) [Compound 5C]: in the test with A549 (A549), the half-maximal effective concentration (EC50) was 100 to 1000 nM. The molecule further came in with an IC50 at 15-PGDH/HPGD of under 100 nM.
Turning to `[O-][S+](c1cnc2c(cnn2-c2cccc(-c3ccc(O)nc3)c2)c1)C1CCC(F)(F)C1` (single isomer, unassigned) [Compound 5D], on 15-PGDH/HPGD, the IC50 was under 100 nM.
Molecule `[O-][S+](c1cnc2c(cnn2-c2cccc(-c3nnc[nH]3)c2)c1)C1CC(F)(F)C1` (single isomer, unassigned) [Compound 7A] gave an IC50 at 15-PGDH/HPGD of 100 to 1000 nM.
`[O-][S+](c1cnc2c(cnn2-c2cccc(-c3nnc[nH]3)c2)c1)C1CC(F)(F)C1` (single isomer, unassigned) [Compound 7B]: the EC50 with A549 (Homo sapiens, A549, A549) is under 100 nM. Further, the IC50 against 15-PGDH/HPGD was under 100 nM.
As for `[O-][S+](c1cnc2c(cnn2-c2cccc(-c3nnc[nH]3)c2)c1)C1CCC(F)(F)C1` (single isomer, unassigned) [Compound 8A], at 15-PGDH/HPGD, the IC50 was at least 1000 nM.
For the molecule `[O-][S+](c1cnc2c(cnn2-c2cccc(-c3nnc[nH]3)c2)c1)C1CCC(F)(F)C1` (single isomer, unassigned) [Compound 8B], at 15-PGDH/HPGD, the IC50 fell in the range of 100 to 1000 nM.
For `[O-][S+](c1cnc2c(cnn2-c2cccc(-c3nnc[nH]3)c2)c1)C1CCC(F)(F)C1` (single isomer, unassigned) [Compound 8C], the EC50 in the test with A549 (A549) is under 100 nM. The IC50 against 15-PGDH/HPGD is under 100 nM.
`[O-][S+](c1cnc2c(cnn2-c2cccc(-c3nnc[nH]3)c2)c1)C1CCC(F)(F)C1` (single isomer, unassigned) [Compound 8D] showed an EC50 in the test on A549 (Homo sapiens, A549, A549) of under 100 nM. At 15-PGDH/HPGD, the IC50 was under 100 nM.
On to `O=C(O)c1ccc(-n2ncc3cc([S+]([O-])C4CC(F)(F)C4)cnc32)cc1` (single isomer, unassigned) [Compound 10A], for which the EC50 in the test on A549 (A549) is at least 1000 nM. Moreover, the IC50 against 15-PGDH/HPGD was 100 to 1000 nM.
For `O=C(O)c1ccc(-n2ncc3cc([S+]([O-])C4CC(F)(F)C4)cnc32)cc1` (single isomer, unassigned) [Compound 10B], in that order: 100 to 1000 nM and under 100 nM.
The molecule `CC(=O)Nc1ccc(-c2cncc(-n3ncc4cc([S+]([O-])C5CCCC5)cnc43)c2)cc1` (single isomer, unassigned) [Compound 12B] came in with an EC50 in the test on A549 (Homo sapiens, A549, A549) of at least 1000 nM. In addition, the IC50 on 15-PGDH/HPGD is under 100 nM.
The matching figures for `CC(=O)Nc1cccc(-c2cncc(-n3ncc4cc([S+]([O-])C5CCCC5)cnc43)c2)c1` (single isomer, unassigned) [Compound 14A]: under 100 nM and under 100 nM.
Regarding `CC(=O)Nc1cccc(-c2cncc(-n3ncc4cc([S+]([O-])C5CCCC5)cnc43)c2)c1` (single isomer, unassigned) [Compound 14B], on 15-PGDH/HPGD, the IC50 lay in the range of 100 to 1000 nM.
In the test with A549 (A549), `CNC(=O)c1cccc(-c2cncc(-n3ncc4cc([S+]([O-])C5CCCC5)cnc43)c2)c1` (single isomer, unassigned) [Compound 16A] showed an EC50 of under 100 nM. At 15-PGDH/HPGD, the IC50 is under 100 nM.
In the case of `CNC(=O)c1cccc(-c2cncc(-n3ncc4cc([S+]([O-])C5CCCC5)cnc43)c2)c1` (single isomer, unassigned) [Compound 16B], in the test with A549 (A549), the EC50 is at least 1000 nM. For the same molecule, the IC50 against 15-PGDH/HPGD was under 100 nM.
`[O-][S+](c1cnc2c(cnn2-c2cccc(-c3nnc[nH]3)c2)c1)C1CCC1` (single isomer, unassigned) [Compound 18A, 1-(3-(4H-1,2,4-triazol-3-yl)phenyl)-5-(cyclobutylsulfinyl)-1H-pyrazolo[3,4-b]pyridine] had an EC50 with A549 (A549) of at least 1000 nM. Also, the IC50 against 15-PGDH/HPGD was under 100 nM.
As for `COc1cc(-c2cccc(-n3ncc4cc([S+]([O-])C5CCC5)cnc43)c2)ccn1` (single isomer, unassigned) [Compound 93B], the IC50 at 15-PGDH/HPGD was at least 1000 nM.
On the same count and under the same terms, next, `COCC(C)(C)C[S+]([O-])c1cnc2c(cnn2-c2cccc(-c3nnc[nH]3)c2)c1` (single isomer, unassigned) [Compound 126A]: at least 1000 nM.
For the molecule `COCC(C)(C)C[S+]([O-])c1cnc2c(cnn2-c2cccc(-c3nnc[nH]3)c2)c1` (single isomer, unassigned) [Compound 126B], the IC50 against 15-PGDH/HPGD was under 100 nM.
In the case of `CCCC[S+]([O-])c1cnc2c(cnn2-c2cc(F)cc(NC(=O)OCC)c2)c1` (stereo not drawn) [Compound 27B], the IC50 on 15-PGDH/HPGD is at least 1000 nM.
Same read-out and setting: the figure for `O=S(=O)(c1cnc2c(cnn2-c2ccc(-c3nnc[nH]3)cc2)c1)C1CCOCC1` [Compound 37] is at least 1000 nM; for `CCOC(=O)Nc1cncc(-n2ncc3cc(C(=O)CC4CCC4)cnc32)c1` [Compound 42] it is under 100 nM.
With `CCOC(=O)Nc1cncc(-n2ccc3cc([S+]([O-])C4CC4)cnc32)c1` (stereo not drawn) [Compound 67], the IC50 against 15-PGDH/HPGD is under 100 nM.
The molecule `COc1ccc(-c2cccc(-n3ncc4cc([S+]([O-])C5CCC5)cnc43)c2)cn1` (stereo not drawn) [Compound 90B] came in with a half-maximal inhibitory concentration (IC50) against 15-PGDH/HPGD of 100 to 1000 nM.
Same read-out and setting: the figure for `[O-][S+](c1cnc2c(cnn2-c2cccc(-c3ccnc(N4CCOCC4)c3)c2)c1)C1CCC1` (stereo not drawn) [Compound 91A] is under 100 nM; for `[O-][S+](c1cnc2c(cnn2-c2cccc(-c3ccnc(N4CCOCC4)c3)c2)c1)C1CCC1` (stereo not drawn) [Compound 91B] it is 100 to 1000 nM; for `Cc1nnc(-c2cccc(-n3ncc4cc([S+]([O-])C5CCC5)cnc43)c2)[nH]1` (stereo not drawn) [Compound 92A] it is 100 to 1000 nM.
The same measure, in the same setting: next, `O=c1cc(-c2cccc(-n3ncc4cc([S+]([O-])C5CCC5)cnc43)c2)cc[nH]1` (stereo not drawn) [Compound 94B]: 100 to 1000 nM; `[O-][S+](c1cnc2c(cnn2-c2cccc(-c3ccc(N4CCOCC4)nc3)c2)c1)C1CCC1` (stereo not drawn) [Compound 95A]: under 100 nM; `[O-][S+](c1cnc2c(cnn2-c2cccc(-c3ccc(N4CCOCC4)nc3)c2)c1)C1CCC1` (stereo not drawn) [Compound 95B]: 100 to 1000 nM.
For `COCCC[S+]([O-])c1cnc2c(ccn2-c2cccc(-c3nnc[nH]3)c2)n1` (stereo not drawn) [Compound 103A], on 15-PGDH/HPGD, the IC50 was 100 to 1000 nM.
Take `CC1(O)CC([S+]([O-])c2cnc3c(cnn3-c3cccc(-c4nnc[nH]4)c3)c2)C1` (stereo not drawn) [Compound 107A]: the EC50 with A549 (Homo sapiens, A549, A549) was at least 1000 nM.
With `[O-][S+](c1cnc2c(cnn2-c2ccc3nc(N4CCOCC4)nn3c2)c1)C1CC(F)(F)C1` (stereo not drawn) [Compound 117A], the IC50 on 15-PGDH/HPGD is under 100 nM.
As for `[O-][S+](c1cnc2c(cnn2-c2ccc3nc(N4CCOCC4)nn3c2)c1)C1CC(F)(F)C1` (stereo not drawn) [Compound 117B], the IC50 against 15-PGDH/HPGD was 100 to 1000 nM.
For `CC(C)CC[S+]([O-])c1cnc2c(cnn2-c2ccc(CCCC(=O)O)c(F)c2)c1` (stereo not drawn) [Compound 127A], the IC50 against 15-PGDH/HPGD was 100 to 1000 nM.
Still for that read-out and setting: the figure for `CC(C)CC[S+]([O-])c1cnc2c(cnn2-c2ccc(CCCC(=O)O)c(F)c2)c1` (stereo not drawn) [Compound 127B] is under 100 nM.

These data come from patent publication US20260226066A1, “PGDH INHIBITORS AND METHODS OF MAKING AND USING” (Epirium Bio Inc., priority 2023, published 2026).
